Laboratory results: patent publication US6617313B1, “Glucopyranoside and process of isolation thereof from pterocarpus marsupium pharmaceutical composition containing the same and use thereof” (Council of Scientific and Industrial Research, priority 2002, dated 2003)

Columns and labels:
[1] = system: pancreatic beta cells; conditions: effect due to regeneration of pancreatic beta cells; claim questioned by Kolb et al and Sheehan et al; cited from earlier work
[2] = hypoglycaemic / anti-diabetic activity of the isolated compound (no test described); conditions: stated without test details

| SMILES | hypoglycemic principle [1] | melting point [°C] | hypoglycaemic activity [2] | anti-diabetic activity ([2]; listed as 2,6-dihydroxy-2-(P-hydroxybenzyl)-3(2H)benzofuran-7-C-β-D-glucopyranoside) | anti-diabetic activity ([2]; listed as 2,6-dihydroxy-2-(p-hydroxybenzyl)-3(2H)benzofuran-7-C-β-D-glucopyranoside) |
| --- | --- | --- | --- | --- | --- |
| Oc1cc(O)c2c(c1)O[C@H](c1ccc(O)c(O)c1)[C@H](O)C2 [(−)-epicatechin] | active hypoglycemic principle |  |  |  |  |
| O=C1c2ccc(O)c(C3OC(CO)C(O)C(O)C3O)c2OC1(O)Cc1ccc(O)cc1 [formula 1, 2,6-dihydroxy-2-(P-hydroxybenzyl)-3(2H)benzofuran-7-C-β-D-glucopyranoside] |  | 157 to 158 | shows hypoglycaemic activity | possesses anti-diabetic activity | antidiabetic activity |
